Results from paper PMC10824102, “Identification of small molecule inhibitors of G3BP-driven stress granule formation” (The Journal of Cell Biology, 2024).

Experiments:
[1] = system: stress granule formation in human iPSC-derived cortical neurons; assay: Stress granule formation in iPSC-derived cortical neurons (co-incubation); assay type: cell-based; settings: 50 μM co-incubated with or without 500 μM NaAsO2 for 60 min
Procedure: i3N iPSC clones were gifts from Michael E. Ward (National Institutes of Health, Bethesda, MD, USA) and were used to generate a G3BP1-mNeongreen knock-in iPSC line. iPS neurons were differentiated with a two-step protocol (predifferentiation and maturation) as previously described ([Wang et al., 2017]). For predifferentiation, iPSCs were incubated with 1 µg/ml doxycycline hyclate (Sigma-Aldrich) for 3 days at a density of 1.2 × 10^6 cells/well in six-well dishes coated with Matrigel in knockout DMEM (KO-DMEM)/F12 medium (Thermo Fisher Scientific) containing N2 supplement (Thermo Fisher Scientific), non-essential amino acids (NEAA; Thermo Fisher Scientific), GlutaMAX Supplement (Thermo Fisher Scientific), and Y-27632 ([…] Technologies). The medium was changed daily and Y-27632 was removed from day 2. For maturation, predifferentiated precursor cells were dissociated, counted, and subplated at 25 × 10^4 cells/ml on dishes coated with 50 μg/ml poly-L-ornithine in BrainPhys neuronal medium ([…] Technologies) containing N2 (Thermo Fisher Scientific), B-27, 20 ng/ml BDNF (PeproTech), 20 ng/ml GDNF (PeproTech), 500 µg/ml dibutyryl cyclic-AMP (Sigma-Aldrich), 200 nM L-ascorbic acid (Sigma-Aldrich), 1 µg/ml natural mouse laminin (Thermo Fisher Scientific), 1 μM Ara-C (Sigma-Aldrich), and 1 µg/ml doxycycline hyclate. Half-medium was changed every other day. […]

[2] = biological target: T1, interaction between G3BP1 and endogenous USP10 (Homo sapiens, UniProt Q13283); assay: Coimmunoprecipitation of G3BP1-GFP with endogenous USP10 in U2OS lysates; assay type: biochemical; settings: increasing concentrations added to U2OS G3BP1-GFP lysates, GFP IP
T1 construct: expressed in transfected cells; host or cells: U2OS cells stably expressing G3BP1-GFP (lysate)
Procedure: U2OS cells expressing G3BP1-GFP were grown in 3-cm dishes to 100% confluency, at which point cells were collected and pelleted at 400 × g for 5 min. Pellets were either stored at −80°C or processed the same day by lysing with 200 μl in vivo lysis buffer (150 mM NaCl, 50 mM Tris [pH 7.5], 1 mM EDTA, 0.5% NP-40, and 10% glycerol, supplemented with 1 protease inhibitor tablet [11836170001; Roche]). Lysates were centrifuged at 13,000 × g at 4°C for 15 min, after which supernatants were transferred to a new tube and diluted with 200 μl lysis buffer containing indicated concentrations of G3I compounds. The mixture was then incubated with GFP-Trap (ChromoTek GFP-Trap Magnetic Agarose; Proteintech; gtma) for 2 h at 4°C. Beads were washed three times with lysis buffer, then incubated with 1× SDS sample buffer supplemented with 10% 2-mercaptoethanol, and boiled for 5 min at 95°C. Lysates were subjected to SDS-PAGE and then immunoblotted.
Samples were separated by SDS-PAGE and transferred to membranes. […] Membranes were visualized and quantified with an Odyssey Fc imaging system (LI-COR) and normalized to the amount of G3BP1 immunoprecipitated.

[3] = biological target: T2, condensate formation by G3BP1 and RNA (Homo sapiens, UniProt Q13283); assay: In vitro LLPS, two-component system (G3BP1 and RNA); assay type: biochemical; settings: 20 μM G3BP1, 100 ng RNA, up to 166 μM compound
T2 construct: made in house; host or cells: E. coli BL21 (DE3)
Procedure: LLPS assays were performed in 30 μl total volume at 25°C at pH 7.4 in buffer containing 37 mM Tris, pH 7.5, 116 mM NaCl, 0.33% NP-40, 2.6% glycerol, 0.5 mM DTT with 20 ng/μl total cellular RNA from U2OS cells and 1.425 μM G3BP1, 0.075 μM FLAG-GFP-G3BP1, and 1.5 μM caprin 1. Reactions were initiated by adding G3BP1/caprin 1 protein mix to cellular RNA, followed by 3 min of shaking at 450 rpm and then incubation for 70 min in the dark. For condensates formed with G3BP1 and RNA, 20 μM purified G3BP1 and 100 ng of total cellular RNA from HEK293T cells were added to a buffer consisting of 100 mM NaCl and 16.7 mM HEPES (pH 7.5) in the presence of the indicated dose of G3Ib or vehicle control.

T1 sequence (Q13283 whole entry): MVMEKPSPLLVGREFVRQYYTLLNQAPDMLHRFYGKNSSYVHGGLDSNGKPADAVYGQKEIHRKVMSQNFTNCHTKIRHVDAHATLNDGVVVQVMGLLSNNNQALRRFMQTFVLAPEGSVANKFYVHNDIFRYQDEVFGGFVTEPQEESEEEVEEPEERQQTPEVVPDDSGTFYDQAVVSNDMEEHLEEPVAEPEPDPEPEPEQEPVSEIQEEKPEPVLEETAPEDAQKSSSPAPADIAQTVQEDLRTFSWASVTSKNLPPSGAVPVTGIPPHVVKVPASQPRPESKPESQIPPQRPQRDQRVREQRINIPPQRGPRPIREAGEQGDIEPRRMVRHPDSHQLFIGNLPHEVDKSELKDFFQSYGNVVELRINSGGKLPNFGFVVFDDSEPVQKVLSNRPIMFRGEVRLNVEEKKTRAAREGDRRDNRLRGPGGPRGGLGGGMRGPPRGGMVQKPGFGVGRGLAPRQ
T2 sequence (Q13283 whole entry): as above

Row | Compound | spontaneous and arsenite-induced stress granule formation [1] | interaction between G3BP1 and endogenous USP10 [2] | condensate formation by G3BP1 and RNA [3]
1 | COCCC(NC(=O)C(C)NC(=O)C(NC(=O)C(NC(=O)C(F)CC(C)(C)C)C(C)(C)O)C(C)c1ccccc1)C(=O)N(C)Cc1ccccc1 (stereo not shown) [G3Ia] | blocked both spontaneous and arsenite-induced stress granule formation |  | 
2 | CC(NC(=O)C(NC(=O)C(NC(=O)CCC(C)(C)C)C(C)(C)O)C(C)c1ccccc1)C(=O)N1CCCC1c1ccccc1 (stereo not shown) [G3Ib] |  | dose-dependent reduction | unaffected
3 | CC(NC(=O)C(NC(=O)C(NC(=O)CCC(C)(C)C)C(C)(C)O)C(C)c1ccccc1)C(=O)N1CCCC1c1ccccc1 (stereo not shown) [G3Ib′] |  | no such effect | 
